This note sets out measurements from ChEMBL document CHEMBL1201862, “PubChem BioAssay data set” (2004).

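Exposure lasted 48 hours, with cells grown in 96-well plates and compounds tested at five concentrations. Abbreviation: GI50, concentration required for 50% inhibition of growth.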 The source made the active and inactive calls. No stated cut-off is given here; in the data, active = GI50 up to about 1.1 µM and inactive = higher.

Test systems include T47D; M14; OVCAR-5; A549; MOLT-4; U-251; HT-29; NCI-H226; OVCAR-4; ACHN; HL-60; SF-268; SK-MEL-5; CAKI-1; MDA-MB-231; TK-10; K562; BT-549; NCI-H522; SK-OV-3.
Holding throughout (assay): DTP human tumour cell line panel, 48 h

Take `Cc1csc2nc(-c3cc([N+](=O)[O-])c(Cl)cc3Cl)c(/C=N/N=C(N)N)n12`: the GI50 is 16.9 µM (inactive) in the test with T47D; 17.1 µM (inactive) with M14; 17.4 µM (inactive) with OVCAR-5; 19 µM (inactive) in the test on A549; 0.0986 µM (active) with MOLT-4; 16.6 µM (inactive) in the test with U-251. Further, the GI50 in the test with HT-29 is 16.1 µM (inactive); in the test on NCI-H226 it was 18.5 µM (inactive); in the test on OVCAR-4 it was 16 µM (inactive); in the test with ACHN, 16.6 µM (inactive); with HL-60 it was 13.5 µM (inactive); in the test on SF-268, 16.5 µM (inactive). In addition, the GI50 in the test on SK-MEL-5 is 16.1 µM (inactive); in the test on CAKI-1, 15.6 µM (inactive); with MDA-MB-231, 14.8 µM (inactive); in the test with TK-10, 16.8 µM (inactive); with K562, 6.53 µM (inactive); in the test on BT-549 it was 14.6 µM (inactive). In addition, the GI50 in the test on NCI-H522 is 15.9 µM (inactive).

`N#Cc1ccc(-c2nc3cc(Cl)ccc3[nH]2)cc1`: the GI50 in the test on T47D was 35.6 µM (inactive); in the test with M14, 79.1 µM (inactive); in the test with A549, 38.3 µM (inactive); with SK-OV-3, > 100 µM (inactive); in the test on MOLT-4, 23.1 µM (inactive); in the test with U-251, 61.9 µM (inactive). Also, the GI50 is 48.2 µM (inactive) in the test on HT-29; 99.5 µM (inactive) in the test with NCI-H226; 13 µM (inactive) in the test on HL-60; 37.8 µM (inactive) with SK-MEL-5; 54.2 µM (inactive) with CAKI-1; > 100 µM (inactive) with MDA-MB-231. In addition, the results for the GI50 in the test on K562, in the test on BT-549 and in the test on NCI-H522 were 50.2 µM (inactive), 68.2 µM (inactive) and 32.4 µM (inactive), respectively.

In the case of `CCOC(=O)c1ccc(Nc2nc3cc(C(F)(F)F)ccc3nc2-c2ccccc2)cc1`, the GI50 in the test on T47D was 35.7 µM (inactive); in the test on OVCAR-5, 30.1 µM (inactive); in the test with A549, > 100 µM (inactive); with MOLT-4, > 10 µM (inactive); in the test with U-251, 21.9 µM (inactive); in the test with HT-29, > 10 µM (inactive). Moreover, the GI50 in the test with NCI-H226 is > 100 µM (inactive); in the test on ACHN it was 17.7 µM (inactive); in the test on HL-60 it was 50.2 µM (inactive); in the test with SF-268 it was > 100 µM (inactive); with SK-MEL-5 it was 65 µM (inactive); in the test with CAKI-1, 42.9 µM (inactive). Besides, the GI50 with MDA-MB-231 is 79.6 µM (inactive); in the test on TK-10, > 10 µM (inactive); in the test with K562, > 100 µM (inactive); in the test on BT-549 it was > 100 µM (inactive); in the test with NCI-H522, 37.6 µM (inactive).

As to `CCOC(=O)c1c(N)sc2c1C(C(=O)OCC)CCCC2` (stereo unspecified), the GI50 with T47D is 22.5 µM (inactive); in the test with M14, > 100 µM (inactive); in the test with OVCAR-5, > 100 µM (inactive); in the test on A549 it was 88.9 µM (inactive); in the test with MOLT-4, 29.6 µM (inactive); in the test on U-251 it was 66.5 µM (inactive). The GI50 with HT-29 was > 100 µM (inactive); with NCI-H226, > 100 µM (inactive); in the test on ACHN, 83.6 µM (inactive); with HL-60 it was 26.2 µM (inactive); in the test on SK-MEL-5, 75.2 µM (inactive); in the test on MDA-MB-231, 46.8 µM (inactive). For the same molecule, the values for the GI50 in the test on TK-10, with K562 and in the test on BT-549 were > 100 µM (inactive), 52.8 µM (inactive) and > 100 µM (inactive), respectively.

Take `CC(C)(C)c1ccc(-c2nc3ccc([N+](=O)[O-])cc3c(=O)o2)cc1`: the GI50 in the test with T47D was 40.5 µM (inactive); in the test on M14 it was 26.5 µM (inactive); in the test with OVCAR-5 it was 32.8 µM (inactive); in the test on A549, 28.9 µM (inactive); with SK-OV-3 it was 31.5 µM (inactive); in the test with MOLT-4, 18.7 µM (inactive). Moreover, the GI50 is 15 µM (inactive) with U-251; 24.7 µM (inactive) with HT-29; 17.6 µM (inactive) with OVCAR-4; 21.9 µM (inactive) in the test on ACHN; 25.5 µM (inactive) with HL-60; 35.7 µM (inactive) in the test on SF-268. In addition, the GI50 in the test on SK-MEL-5 was 27.2 µM (inactive); in the test with CAKI-1 it was 50.4 µM (inactive); in the test with MDA-MB-231, 27.5 µM (inactive); in the test on TK-10, 38.8 µM (inactive); in the test with K562 it was 19.1 µM (inactive); with BT-549 it was 24.1 µM (inactive). Further, the GI50 in the test with NCI-H522 is 20.1 µM (inactive).

As to `Cc1ccc(Nc2nnc3n2S(=O)(=O)c2cc(C)c(Cl)cc2S3)cc1`, the GI50 was 17.7 µM (inactive) in the test with T47D; 7.14 µM (inactive) in the test on M14; 14.1 µM (inactive) in the test with OVCAR-5; 8.39 µM (inactive) in the test on A549; 4.25 µM (inactive) with MOLT-4; 4.66 µM (inactive) with U-251. In addition, the GI50 is 10.3 µM (inactive) with HT-29; 10.7 µM (inactive) in the test with NCI-H226; 22.8 µM (inactive) in the test on OVCAR-4; 27.9 µM (inactive) in the test with ACHN; 3.48 µM (inactive) with HL-60; 4.25 µM (inactive) with SF-268. Further, the GI50 in the test with SK-MEL-5 is 3.6 µM (inactive); with CAKI-1, 23 µM (inactive); in the test on MDA-MB-231 it was 13.4 µM (inactive); with TK-10 it was 35.2 µM (inactive); in the test on K562, 3.4 µM (inactive); in the test on BT-549 it was 5.28 µM (inactive). Further, in the test on NCI-H522, the GI50 was 2.18 µM (inactive).

Turning to `COC(=O)/C=C1/OC(c2ccccc2)=C(C)C1=O`, the GI50 in the test with T47D is 20.1 µM (inactive); in the test on M14, 11.7 µM (inactive); with OVCAR-5, 16 µM (inactive); in the test with SK-OV-3 it was 10.7 µM (inactive); in the test on MOLT-4, 3.28 µM (inactive); in the test on U-251, 14.1 µM (inactive). The GI50 was 1.98 µM (inactive) in the test with HT-29; 15.8 µM (inactive) in the test on NCI-H226; 13 µM (inactive) with ACHN; 1.97 µM (inactive) with HL-60; 17.9 µM (inactive) in the test on SF-268; 13.6 µM (inactive) with SK-MEL-5. Besides, the GI50 with CAKI-1 is 4.05 µM (inactive); in the test with MDA-MB-231, 4.86 µM (inactive); in the test with TK-10, 15.7 µM (inactive); with K562, 3.2 µM (inactive); in the test on BT-549 it was 2.86 µM (inactive); in the test with NCI-H522 it was 12.6 µM (inactive).

With `Cc1cc(C)c2c(n1)S(=O)(=O)N(CCCN1CCN(c3cccc(Cl)c3)CC1)C(C(=O)c1ccc(Br)cc1)=C2O`, the GI50 with T47D was 33.4 µM (inactive); in the test with M14, 19.4 µM (inactive); in the test with OVCAR-5 it was 36.2 µM (inactive); in the test on A549, 22.1 µM (inactive); with SK-OV-3, 29.5 µM (inactive); in the test on MOLT-4, 10.6 µM (inactive). In addition, the GI50 in the test with U-251 was 21.3 µM (inactive); in the test on HT-29, 25.4 µM (inactive); in the test on OVCAR-4, 11.4 µM (inactive); in the test on ACHN, 27.3 µM (inactive); with HL-60, 14.3 µM (inactive); in the test with SF-268 it was 24.5 µM (inactive). Further, the GI50 was 15.4 µM (inactive) with SK-MEL-5; 6.9 µM (inactive) with CAKI-1; 37.7 µM (inactive) in the test on MDA-MB-231; 17.7 µM (inactive) with TK-10; 27.8 µM (inactive) with K562; 42.3 µM (inactive) in the test on BT-549. For the same molecule, the GI50 with NCI-H522 is 20.5 µM (inactive).
